# From ChEMBL document CHEMBL1201862, “PubChem BioAssay data set” (2004)
#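 Five concentrations, 48 hours, 96-well plates. GI50 is the concentration that inhibits growth by half.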 Activity calls are given as the source filed them. Rule as the data show it: active = GI50 up to about 1.1 µM and inactive = higher.
# What was measured:
# Assay in all cases: NCI-60 cell line screen, 48 h
# T47D = tested on: T47D
# LOX IMVI = tested on: LOX IMVI
# UACC-62 = tested on: UACC-62
# NCI-H460 = tested on: NCI-H460
# MDA-MB-435 = tested on: MDA-MB-435
# OVCAR-8 = tested on: OVCAR-8
# HT-29 = tested on: HT-29
# SK-MEL-28 = tested on: SK-MEL-28
# SF-295 = tested on: SF-295
# MDA-MB-231 = tested on: MDA-MB-231
# HOP-62 = tested on: HOP-62
# SF-268 = tested on: SF-268
# ACHN = tested on: ACHN
# Malme-3M = tested on: Malme-3M
# OVCAR-4 = tested on: OVCAR-4
# SK-MEL-5 = tested on: SK-MEL-5
# DU-145 = tested on: DU-145
# HCT-116 = tested on: HCT-116
# A498 = tested on: A498
# A549 = tested on: A549
SMILES,GI50 (T47D),GI50 (LOX IMVI),GI50 (UACC-62),GI50 (NCI-H460),GI50 (MDA-MB-435),GI50 (OVCAR-8),GI50 (HT-29),GI50 (SK-MEL-28),GI50 (SF-295),GI50 (MDA-MB-231),GI50 (HOP-62),GI50 (SF-268),GI50 (ACHN),GI50 (Malme-3M),GI50 (OVCAR-4),GI50 (SK-MEL-5),GI50 (DU-145),GI50 (HCT-116),GI50 (A498),GI50 (A549)
O=C1/C(=C/c2ccccc2)CCCC1CN1CCCCC1 (stereo not given),1770 nM (inactive),1650 nM (inactive),6530 nM (inactive),6580 nM (inactive),2000 nM (inactive),2090 nM (inactive),1580 nM (inactive),1970 nM (inactive),19100 nM (inactive),2000 nM (inactive),20800 nM (inactive),1780 nM (inactive),3400 nM (inactive),1820 nM (inactive),2050 nM (inactive),4310 nM (inactive),14300 nM (inactive),1680 nM (inactive),16700 nM (inactive),17500 nM (inactive)
CN(CCCNC(=O)c1nn(-c2ccc(Cl)cc2Cl)c2c1Cc1ccccc1-2)CCCNC(=O)c1nn(-c2ccc(Cl)cc2Cl)c2c1Cc1ccccc1-2,1920 nM (inactive),1670 nM (inactive),1570 nM (inactive),1650 nM (inactive),1480 nM (inactive),1810 nM (inactive),1730 nM (inactive),1690 nM (inactive),1720 nM (inactive),1870 nM (inactive),1720 nM (inactive),1960 nM (inactive),1670 nM (inactive),1780 nM (inactive),285 nM (active),1680 nM (inactive),1770 nM (inactive),1700 nM (inactive),1710 nM (inactive),1770 nM (inactive)
O=C1C(Cl)=C(N2CCC[C@@H]2CO)C(=O)c2c(O)ccc(O)c21,1780 nM (inactive),1470 nM (inactive),1360 nM (inactive),1730 nM (inactive),1510 nM (inactive),2000 nM (inactive),2150 nM (inactive),1820 nM (inactive),1790 nM (inactive),2020 nM (inactive),1580 nM (inactive),1290 nM (inactive),1600 nM (inactive),1640 nM (inactive),1760 nM (inactive),1010 nM (active),1840 nM (inactive),1440 nM (inactive),2900 nM (inactive),2080 nM (inactive)
COc1ccc(OC)c(CSc2ccc(OC)c(OC)c2)c1,10600 nM (inactive),> 64600 nM (inactive),> 68500 nM (inactive),> 100000 nM (inactive),> 79400 nM (inactive),> 95300 nM (inactive),> 73300 nM (inactive),> 100000 nM (inactive),> 81500 nM (inactive),> 93500 nM (inactive),> 100000 nM (inactive),> 100000 nM (inactive),> 100000 nM (inactive),> 100000 nM (inactive),31400 nM (inactive),45400 nM (inactive),> 100000 nM (inactive),> 86900 nM (inactive),38800 nM (inactive),> 79400 nM (inactive)
O=c1c2ccccc2oc2c1ccc1ncccc12,12100 nM (inactive),5240 nM (inactive),11000 nM (inactive),3560 nM (inactive),25700 nM (inactive),11800 nM (inactive),14500 nM (inactive),23000 nM (inactive),12900 nM (inactive),26800 nM (inactive),15000 nM (inactive),17200 nM (inactive),5550 nM (inactive),14800 nM (inactive),14400 nM (inactive),11500 nM (inactive),4690 nM (inactive),6340 nM (inactive),5010 nM (inactive),5400 nM (inactive)
